Experimental data reported in patent US7504384B2 (priority 2000, dated 2009).
Values joined by “and” are separate entries in the source; they are usually repeats but may differ in a detail not shown here. Equal entries are not always repeated. Where two headings read alike, the source gives them in different places.

Key:
[1] = system: nitric oxide (NO) production by BAL macrophages; type: in vivo, Brown Norway rats; conditions: compared to asthmatic and naïve rats, p<0.001; macrophages cultured without further treatment
[2] = system: OVA-sensitized asthmatic rats; assay: OVA-induced broncho-constriction (Penh) in asthmatic rats; type: in vivo, Brown Norway rats
Protocol: Subjects: Inbred Brown Norway male rats (4 weeks old) obtained from Harlan, USA, were used in this study. The Hebrew University Animal Welfare Committee approved all protocols.
In mode 1, all groups (5 rats in each) were treated and challenged as described above on day 14, 16, 18 and 20, and pulmonary function (Penh) was assessed on day 20 before and 5 min after challenge (EAR).
In mode 2, each group (10 rats in each) were treated and challenged from day 14, every other day, until day 45. Pulmonary function (Penh) was assessed on day 20 before and 5 min and 8 h after challenge, corresponding to early and late asthmatic reaction (EAR and LAR, respectively).
Assessment of broncho-constriction: Unrestrained conscious rats were placed in a whole-body plethysmograph (Buxco Electronics Inc., Troy, N.Y., USA) connected to a pneumotach (EMKA Technologies, Type 0000) at one end, and to a 10 ml bottle at the other end. The pneumotach was connected to a preamplifier (model MAX2270, Buxco Electronics). Analogue signals from the amplifier were converted to a digital signal by an AD card (LPM-16 National Instruments, Austin, Tex., USA). Broncho-constriction measures were expressed as the enhanced pause (Penh). Penh=(PEF/PIF)*((Te−Tr)/Tr), where PEF=Peak Expiratory Flow, PIF=Peak Inspiratory Flow, Te=Expiratory Time, Tr=Relaxation Time=time of the pressure decay to 36% of total box pressure during expiration.

[3] = system: TNFα production by BAL macrophages; assay: TNFα production by macrophages from BAL of OVA-sensitized asthmatic rats; conditions: compared with Naive and Dx-treated rats; p<0.001 vs Asthmatic
[4] = system: rats with endotoxin-induced sepsis; assay: Rat survival in LPS-induced endotoxinemia; type: in vivo; conditions: 100 mg/kg 3 hours before LPS (15 mg/kg i.p.) and 50 mg/kg with LPS; 48 hours
Protocol: Endotoxins administered to animals produce cardiovascular and multiorgan disorders that are similar to clinical sepsis. Thus, in the present study, a rat model was developed to test possible Lipid-conjugate effects on mediator production and mortality in endotoxin-induced Sepsis. Rats were intraperitoneally (i.p.) or intravenously (i.v.) injected with a Lipid-conjugate (Compound XXII, 100 mg/kg) dissolved in sterile saline or with sterile saline alone as placebo. After 3 hours, all rats received LPS (15 mg/kg i.p.; Escherichia coli 111:B44 LPS, Sigma, Deisenhofen, Germany). In rats that were pretreated with Compound XXII, LPS was injected together with a second dose of Compound XXII (50 mg/kg). The effect of Compound XXII on LPS injected rats was observed over a time period of 48 hours.

[5] = system: TNF-α and IL-6 in serum; assay: Serum cytokine levels in septic rats (ELISA); type: in vivo, rat
Protocol: Blood samples were collected 1, 6, 12, and 24 hours after LPS injection to assess cytokine concentrations (FIG. 4.3A). […] Thereafter, the animals received LPS (7.5 mg/kg) i.p. alone or together with Compound XXII (150 mg/kg) or Compound XXV (50 mg/kg). Blood samples were collected after LPS injection. A group of rats that was not treated with Lipid-conjugates or LPS served as negative controls (FIG. 4.3B). All cytokines were measured in separated serum by ELISA Immunoassays (R&D Systems GmbH, Wiesbaden, Germany) according to the instructions of the manufacturer.
In Experiment 4.5, sepsis was induced by LPS ([…] endotoxin, 5 mg/kg) and lipoteichoic acid (LTA, […] endotoxin, 5 mg/kg; Staph. aureus LTA, Sigma, Germany).

[6] = system: Human RBC; assay: Prevention of hemolysis of human red blood cells; type: cell-based; conditions: 20 min, 10 μM Lipid-conjugate, None = 1.000
Protocol: Hemolysis, the breakdown of red blood cells (RBC), may be either a primary disease in itself, or a syndrome associated with another disease or physiological insult. In order to determine the effect of Lipid-conjugates on hemolysis, red blood cells were incubated in the presence of known membrane destabilizing agents and the release of hemoglobulin into the extracellular medium was detected.
Human RBC were washed in saline and suspended in Hanks buffer (pH 7.4). Hemolysis was induced in the absence or presence of 10 μM Lipid-conjugates by treatment with either 5 U/ml streptolysin O (SLO), 25 U/ml streptolysin S (SLS), or 5 μg/ml lysophosphatidylcholine (lyso-PC) for 20 min. The cell membranes were spun and the hemoglobin content in the supernatant was determined by measuring the O.D. at 540 nm (Table 5.1).

[7] = system: Influenza A (H1N1 strain) virus; type: cell-based, Influenza type A, A/New Caledonia/20/99 (H1N1); conditions: high concentration, Neutral Red Uptake Assay
[8] = system: Influenza A (H3N2 strain) virus; type: cell-based, Influenza type A, A/Panama/2007/99 (H3N2)
[9] = system: Influenza A (H1N1 strain) virus; type: cell-based, Influenza type A, A/New Caledonia/20/99 (H1N1)
[10] = system: Influenza B virus; type: cell-based, Influenza type B, B/Hong Kong/330/02; conditions: high concentration, Neutral Red Uptake Assay
[11] = system: Respiratory syncytial virus; type: cell-based, strain A2
[12] = system: Influenza B virus; type: cell-based, Influenza type B, B/Hong Kong/330/02; conditions: high concentration; Visual Observation Assay; Influenza B

| Substance | NO level, BAL macrophages [1] | broncho-constriction (percent change of Penh), early asthmatic reaction (EAR) ([2]; aerosol inhalation, 5 min after challenge, compared with Naïve or Dx-treated groups, p<0.01 vs Asthmatic) | broncho-constriction (percent change of Penh), late asthmatic reaction (LAR) ([2]; aerosol inhalation, 8 h after challenge, compared with Naïve or Dx-treated groups, p<0.01 vs Asthmatic) | allergen-induced broncho-constriction (Penh), inhaled before OVA challenge ([2]; already asthmatic rats, nebulized 1 mg/ml for 5 minutes, 30 minutes before challenge) | broncho-constriction (Penh), inhaled after OVA challenge ([2]; asthmatic rats, nebulized 1 mg/ml for 5 minutes, thirty minutes after challenge) | TNFα production, BAL macrophages [3] | mortality rate among septic rats [4] | cytokine production induced by LPS or LPS + LTA ([5]; 150 mg/kg, 5 mg/kg i.p. LPS, or LPS + 5 mg/kg i.p. LTA, 1 and 6 hours) | endotoxin-induced cytokine production ([5]; i.v. at the same time as LPS i.p., versus i.p. pretreatment) | HEMOLYSIS (O.D. AT 540 nm), Lyso-PC ([6]; 5 μg/ml lysophosphatidylcholine) [O.D.] | HEMOLYSIS (O.D. AT 540 nm), SLO ([6]; 5 U/ml streptolysin O) [O.D.] | HEMOLYSIS (O.D. AT 540 nm), SLS ([6]; 25 U/ml streptolysin S) [O.D.] | EC50 [7] [µg/mL] | SI (IC50/EC50) [8] | EC50 ([8]; high concentration, Visual Observation Assay, Influenza A (H3N2 strain)) [µg/mL] | SI (IC50/EC50) [9] | EC50 ([9]; high concentration, Visual Observation Assay, Influenza A (H1N1 strain)) [µg/mL] | EC50 [10] [µg/mL] | EC50 [11] [µg/mL] | EC50 [12] [µg/mL] |
| --- | --- | --- | --- | --- | --- | --- | --- | --- | --- | --- | --- | --- | --- | --- | --- | --- | --- | --- | --- | --- |
| dipalmitoyl-PE conjugated to HA [Compound XXII] | reduced | no significant difference | no significant difference | effective in preventing allergen-induced broncho-constriction | reverse broncho-constriction | no significant differences | markedly reduced the mortality rate | effective in suppressing cytokine production | suppressed equally well | – | – | – | – | – | – | – | – | – | – | – |
| dipalmitoyl-phosphatidyl-ethanolamine conjugated to heparin [Compound XXIV] | – | – | – | – | – | – | – | – | – | 0.002 | 0.002 | 1.100 | 1000 | 2.9 and 2 | 200 | 20 and 11 | 400 | 450 | 4 | 350 |
